Assay results reported in patent US20240279298A1 (BEIJING TUO JIE BIOPHARMACEUTICAL CO. LTD., priority 2021, published 2024).
Where a SMILES comes first, the peptide text is derived from it. [ ]: non-standard residue; d: D form. Aib = CC(C)(N)C(=O)O

What was measured:
[1] = molecular target: T1, human glucagon receptor (GCGR) (Homo sapiens, UniProt P47871); test: Agonist activity assay for GCGR (cAMP HTRF); assay type: cell-based; details: normalized by the activity of the native glucagon
T1 construct: expressed in transfected cells
T1 sequence (P47871 26-477): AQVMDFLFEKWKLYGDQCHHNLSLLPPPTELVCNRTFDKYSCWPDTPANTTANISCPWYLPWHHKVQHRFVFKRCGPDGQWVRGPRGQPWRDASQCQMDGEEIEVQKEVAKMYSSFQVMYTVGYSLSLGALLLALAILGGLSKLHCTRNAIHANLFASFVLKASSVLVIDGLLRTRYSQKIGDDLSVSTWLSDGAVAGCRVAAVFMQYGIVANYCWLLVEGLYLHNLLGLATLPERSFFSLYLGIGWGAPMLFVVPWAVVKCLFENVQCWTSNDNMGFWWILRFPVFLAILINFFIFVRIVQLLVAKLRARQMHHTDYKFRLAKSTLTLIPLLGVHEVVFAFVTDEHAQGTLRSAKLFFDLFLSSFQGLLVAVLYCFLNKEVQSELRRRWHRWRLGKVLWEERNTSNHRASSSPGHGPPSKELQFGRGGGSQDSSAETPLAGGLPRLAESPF
Procedure: The activation of GCGR by related compounds will stimulate the formation of cyclic adenosine monophosphate (cAMP) in cells. Thus, the receptor activity can be monitored by cAMP production in proper cells expressing the receptor. […] The cells were passaged at least once for subsequent tests. Before testing, the cells were trypsinized, centrifuged, washed once, and resuspended in serum-free DMEM/F12 medium. The cell density was adjusted, and the cells were plated in a 96-well plate at a density of 2,500 cells/5 μL/well. […] The mixture was mixed well by moderate vibration, and incubated for 1 hour at room temperature away from light.

human GLP-1R = molecular target: T2, human GLP-1R (Homo sapiens, UniProt P43220); test: Agonist activity assay for GLP-1R (cAMP HTRF); assay type: cell-based
T2 construct: expressed in transfected cells
T2 sequence (P43220 24-463): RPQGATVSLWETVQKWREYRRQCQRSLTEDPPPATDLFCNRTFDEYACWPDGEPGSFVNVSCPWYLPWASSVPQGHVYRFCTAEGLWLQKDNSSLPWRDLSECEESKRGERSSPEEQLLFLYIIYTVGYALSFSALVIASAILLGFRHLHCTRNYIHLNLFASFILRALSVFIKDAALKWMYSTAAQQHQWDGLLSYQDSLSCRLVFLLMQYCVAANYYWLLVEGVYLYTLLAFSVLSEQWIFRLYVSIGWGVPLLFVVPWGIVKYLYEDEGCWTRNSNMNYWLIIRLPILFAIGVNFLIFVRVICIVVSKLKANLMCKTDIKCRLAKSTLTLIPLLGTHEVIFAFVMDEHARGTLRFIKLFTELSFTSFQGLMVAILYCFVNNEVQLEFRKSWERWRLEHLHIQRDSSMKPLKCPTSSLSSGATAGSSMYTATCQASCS
Procedure: (§1) The activation of GCGR by related compounds will stimulate the formation of cyclic adenosine monophosphate (cAMP) in cells. Thus, the receptor activity can be monitored by cAMP production in proper cells expressing the receptor.
(§2) Agonist activity assay for GCGR: Cryopreserved stable CHO-K1/GCGR/CRE-Luc cells were taken from a liquid nitrogen tank, thawed in a 37° C. water bath, resuspended in DMEM/F12 medium (Sigma Cat #D8437), centrifuged, and seeded into T75 culture flasks. The cells were passaged at least once for subsequent tests. Before testing, the cells were trypsinized, centrifuged, washed once, and resuspended in serum-free DMEM/F12 medium. The cell density was adjusted, and the cells were plated in a 96-well plate at a density of 2,500 cells/5 μL/well. A 1×buffer solution in Cisbio-cAMP-Gs Dynamic kit was prepared, and IBMX was added at a final concentration of 0.5 mM. 5 μL of polypeptide serially diluted by buffer was added into each well, and the plate was shaken gently for mixing and incubated for 30 minutes at 37° C. cAMP-d2 and Anti-cAMP-Eu^3+-Cryptate were 20-fold diluted with cAMP Lysis and detection buffer respectively and mixed well. 5 μL of diluted cAMP-d2 solution and 5 μL of diluted Anti-cAMP-Eu^3+-Cryptate solution were sequentially added into each well. The mixture was mixed well by moderate vibration, and incubated for 1 hour at room temperature away from light.
Agonist activity assay for GLP-1R: The method differed from the method described above for the agonist activity assay for GCGR in that a stable CHO-GLP-1R cell line was used.

human GIPR = molecular target: T3, human GIPR (Homo sapiens, UniProt P48546); test: Agonist activity assay for GIPR (cAMP HTRF); assay type: cell-based
T3 construct: expressed in transfected cells
T3 sequence (P48546 22-466): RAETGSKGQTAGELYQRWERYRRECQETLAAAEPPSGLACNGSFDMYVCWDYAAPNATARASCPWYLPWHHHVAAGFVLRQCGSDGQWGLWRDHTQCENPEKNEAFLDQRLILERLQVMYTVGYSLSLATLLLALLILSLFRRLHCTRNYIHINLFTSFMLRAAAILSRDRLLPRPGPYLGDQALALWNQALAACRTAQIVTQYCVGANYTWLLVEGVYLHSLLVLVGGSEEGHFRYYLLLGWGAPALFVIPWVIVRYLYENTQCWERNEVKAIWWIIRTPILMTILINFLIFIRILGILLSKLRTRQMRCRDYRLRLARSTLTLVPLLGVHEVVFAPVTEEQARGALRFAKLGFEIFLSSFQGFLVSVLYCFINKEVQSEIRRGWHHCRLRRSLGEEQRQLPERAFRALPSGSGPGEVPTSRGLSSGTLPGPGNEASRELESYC
Procedure: as §1, §2
Agonist activity assay for GIPR: The method differed from the method described above for the agonist activity assay for GCGR in that a stable CHO-K1/GIPR cell line was used, and the cell density was 3,000 cells/5 μL/well.

[2] = Maximum solubility in phosphate buffer pH 7.4; assay type: physicochemical; details: phosphate buffer pH 7.4, room temperature
[3] = Chemical stability in phosphate buffer (UPLC purity); assay type: physicochemical; details: phosphate buffer pH 7.4, 1 mg/mL
[4] = test system: normal rats (blood glucose); test: Efficacy in normoglycemic rat model; assay type: in vivo, SD rats; details: normal rats, 2 nmol/kg subcutaneous single dose
[5] = test system: insulin-induced hypoglycemia rat model; test: Efficacy in insulin-induced hypoglycemic rat model; assay type: in vivo, SD rats; details: insulin 0.65 IU/kg at T0; 12 nmol/kg subcutaneous at 45 min
[6] = Pharmacokinetics in rats after subcutaneous injection; assay type: in vivo, SD rats; details: plasma
Procedure: (1) Animals were grouped according to Table 12, and were given free access to water and food before administration.
• Sampling time: 0 min pre-dose, and 2 min, 4 min, 7 min, 10 min, 20 min, 40 min, 1 h and 2 h post-dose. Blood was collected from rats by jugular catheterization.
• 1) 0.2 mL of whole blood was collected at each time point into a centrifuge tube containing EDTA-K2; • 2) The blood samples were centrifuged at 4000 g at 4° C. for 5 min, and separated to give the plasma; • 3) The plasma samples were cryopreserved at −80° C.
The mixture was vortexed for 5 min and centrifuged at a low temperature for 10 min. 100 μL of the supernatant was taken and added to 100 μL of 0.1% formic acid aqueous solution. The mixture was mixed well, and loaded on the instrument for analysis; • Liquid chromatography and mass spectrometry analysis: LC-30A liquid chromatography system (Shimadzu, Japan) and API 5500 liquid chromatography-triple quadrupole mass spectrometer (Analyst Software data processing system, AB Sciex, USA) were used. The chromatographic column was nanomicro Unisil C18aq (4.6 mm×150 mm, 5 μm) chromatographic column; the column temperature was 40° C.; the mobile phase A was 0.1% formic acid aqueous solution, and the mobile phase B was 0.1% formic acid in acetonitrile; the flow rate was 0.5 mL/min; the injection volume was 20 μL; the gradient is shown in Table 13 below. The mass spectrum was obtained using an electrospray ionization (ESI) source, a positive ion analysis mode and a multi reaction monitoring (MRM) scanning mode.
The plasma concentration of the test compounds was measured by HPLC-MS/MS. The plasma concentration-time curve was plotted, and the pharmacokinetic parameters were calculated by PKSolver.

in vitro [7] = details: human
in vitro [8] = details: human; remark: listed apart in the source
[9] = test system: rat erythrocyte suspension; test: Hemolysis assay; details: for Hemolysis rate: 37° C., 1 hour
human liver microsomes = test: Stability in human liver microsome incubation system
human kidney microsomes = test: Stability in human kidney microsome incubation system

## CC[C@H](C)[C@H](NC(=O)[C@H](CC(=O)O)NC(=O)[C@H](CC(C)C)NC(=O)[C@H](Cc1ccc(O)cc1)NC(=O)[C@H](CCCCN)NC(=O)[C@H](CO)NC(=O)[C@H](Cc1ccc(O)cc1)NC(=O)[C@H](CC(=O)O)NC(=O)[C@H](CO)NC(=O)[C@@H](NC(=O)[C@H](Cc1ccccc1)NC(=O)[C@@H](NC(=O)CNC(=O)[C@H](CCC(N)=O)NC(=O)[C@H](CO)NC(=O)[C@@H](N)Cc1c[nH]cn1)[C@@H](C)O)[C@@H](C)O)C(=O)NC(C)(C)C(=O)N[C@@H](CCCNC(=N)N)C(=O)N[C@@H](C)C(=O)N[C@@H](CCC(N)=O)C(=O)N[C@@H](CCC(=O)O)C(=O)N[C@@H](Cc1ccccc1)C(=O)N[C@H](C(=O)N[C@@H](CCC(N)=O)C(=O)N[C@@H](Cc1c[nH]c2ccccc12)C(=O)N[C@@H](CC(C)C)C(=O)N[C@@H](CCC(=O)O)C(=O)N[C@@H](CO)C(=O)N[C@H](C(=O)O)[C@@H](C)O)C(C)C [Compound 42] (H-HSQGTFTSDYSKYLDI[Aib]RAQEFVQWLEST-OH)
[1]
  Relative activity: 207%
Human GLP-1R
  GLP-1R % Activity relative to native GLP-1: 0.291%
Human GIPR; CHO-K1/GIPR cell line, cAMP
  EC50: > 100 nM
Human GIPR; relative to native GIP
  GIPR % Activity relative to native GIP: <0.0700%
[2]
  solubility at 5 min: > 2490 µg/mL

## CC(C)C[C@H](NC(=O)[C@H](Cc1c[nH]c2ccccc12)NC(=O)[C@H](CCCCN)NC(=O)[C@@H](NC(=O)[C@H](Cc1ccccc1)NC(=O)[C@H](CCC(=O)O)NC(=O)[C@H](CCC(=O)O)NC(=O)[C@H](C)NC(=O)[C@H](CCCNC(=N)N)NC(=O)[C@H](C)NC(=O)C(C)(C)NC(=O)[C@H](CC(=O)O)NC(=O)[C@H](CC(C)C)NC(=O)[C@H](Cc1ccc(O)cc1)NC(=O)[C@H](CCCCN)NC(=O)[C@H](CO)NC(=O)[C@H](Cc1ccc(O)cc1)NC(=O)[C@H](CC(=O)O)NC(=O)[C@H](CO)NC(=O)[C@@H](NC(=O)[C@H](Cc1ccccc1)NC(=O)[C@@H](NC(=O)CNC(=O)[C@H](CCC(N)=O)NC(=O)[C@H](CO)NC(=O)[C@@H](N)Cc1c[nH]cn1)[C@@H](C)O)[C@@H](C)O)C(C)C)C(=O)N[C@@H](CCC(=O)O)C(=O)N[C@@H](CO)C(=O)N[C@H](C(=O)O)[C@@H](C)O [Dasiglucagon, reference compound]
[2]
  solubility at 5 min: > 3750 µg/mL
[3]; 4° C.
  Purity Day 7: 98.66%
  Purity Day 14: 98.84%
  Purity Day 21: 99.85%
  Purity Day 28: 99.68%
[3]; 25° C.
  Purity Day 7: 98.07%
  Purity Day 14: 96.73%
  Purity Day 21: 96.68%
  Purity Day 28: 96.81%
[3]; day 0 (normalization)
  Purity Day 0: 100.00%
[4]
  Blood glucose 15 min: 9.32 mmol/L
  Blood glucose 30 min: 7.73 mmol/L
  Blood glucose 45 min: 6.87 mmol/L
  Blood glucose 60 min: 6.08 mmol/L
[5]
  Blood glucose 60 min: 7.00 mmol/L
  Blood glucose 75 min: 9.52 mmol/L
  Blood glucose 90 min: 8.43 mmol/L
  Blood glucose 105 min: 7.47 mmol/L
[6]; male SD rats, single SC injection, Dasiglucagon 5 mg/kg, 40 5.06 mg/kg
  AUClast/D: 260 h·ng/mL per mg/kg
[6]; male, SD, rat, sc
  Tmax: 10 min
[6]; male, SD, rat, sc, male SD rats, single SC injection, Dasiglucagon 5 mg/kg, 40 5.06 mg/kg
  half-life: 30.6 min
[6]; male, SD, rat, sc, read-out: Bioavailability (F %)
  bioavailability: 84.6%
In vitro [7]; human liver microsomes
  remaining at 0.25 h, 1 μM: 91.8%
  remaining at 0.5 h, 1 μM: 91.6%
  remaining at 1 h, 1 μM: 81.1%
  remaining at 2 h, 1 μM: 59.2%
In vitro [7]; liver microsomes
  half-life at 1 μM: 162 min
In vitro [8]; human kidney microsomes
  remaining at 0.25 h, 1 μM: 63.5%
  remaining at 0.5 h, 1 μM: 52.9%
  remaining at 1 h, 1 μM: 36.6%
  remaining at 2 h, 1 μM: 17.7%
In vitro [8]; kidney microsomes
  half-life at 1 μM: 51.3 min
[9]; 1 μg/mL
  Hemolysis rate: −4.69%
[9]; 3 μg/mL
  Hemolysis rate: −4.77%
[9]; 10 μg/mL
  Hemolysis rate: −4.05%
[9]; 30 μg/mL
  Hemolysis rate: −5.23%
[9]; 100 μg/mL
  Hemolysis rate: −5.52%
[9]; 300 μg/mL
  Hemolysis rate: −4.63%
[9]; concentrations ranging from 1 to 300 μg/mL
  Hemolysis risk (in words): no significant risk of the hemolysis adverse effect was found
Human liver microsomes; With NADPH
  Percentage residues 0 min: 100.0%
Human liver microsomes; Without NADPH
  Percentage residues 0 min: 100.0%
  Percentage residues 15 min: 91.65%
  Percentage residues 30 min: 88.78%
  Percentage residues 60 min: 71.74%
  Percentage residues 120 min: 53.48%
Human liver microsomes; Without NADPH, 1 μM
  T½: 125.37 min
Human kidney microsomes; With NADPH
  Percentage residues 0 min: 100.0%
Human kidney microsomes; Without NADPH
  Percentage residues 0 min: 100.0%
  Percentage residues 15 min: 73.24%
  Percentage residues 30 min: 55.17%
  Percentage residues 60 min: 33.12%
  Percentage residues 120 min: 19.74%
Human kidney microsomes; Without NADPH, 1 μM
  T½: 51.98 min
